The source of these data is ChEMBL document CHEMBL4118048, “Characterization of the Polymyxin D Synthetase Biosynthetic Cluster and Product Profile of Paenibacillus polymyxa ATCC 10401” (2017).

Experiment [1] has as its system Acinetobacter baumannii. As to the kind of experiment: Antibacterial activity against Acinetobacter baumannii ATCC 19606 after 18 hrs by broth microdilution method. In kind it is functional. The following applies: ATCC 19606 = CIP 70.34 = JCM 6841, 18 h. In general terms: In broth dilution the organism is exposed to a series of concentrations in liquid medium.
For experiment [2], the system named is Pseudomonas aeruginosa. As to the kind of experiment: Antibacterial activity against Pseudomonas aeruginosa ATCC 27853 infected in mouse assessed as reduction in bacterial count in blood at 4 mg/kg, ip measured after 4 hrs. In kind it is functional.
For experiment [3], the system named is Klebsiella pneumoniae. As to the kind of experiment: Antibacterial activity against Klebsiella pneumoniae isolate FADDI-KP032 infected in mouse assessed as reduction in bacterial count in blood at 4 mg/kg, ip measured after 4 hrs. In kind it is functional, organism-based.
Experiment [4] relates to Pseudomonas aeruginosa. Put plainly: Antibacterial activity against Pseudomonas aeruginosa ATCC 27853 after 18 hrs by broth microdilution method. In kind it is functional. As to conditions: ATCC 27853, 18 h.
The test system of experiment [5] is Acinetobacter baumannii. As to the kind of experiment: Antibacterial activity against Acinetobacter baumannii ATCC 19606 infected in mouse assessed as reduction in bacterial count in blood at 4 mg/kg, ip measured after 4 hrs. As to conditions: ATCC 19606 = CIP 70.34 = JCM 6841. In kind it is functional, organism-based.
For experiment [6], the system named is Klebsiella pneumoniae. As to the kind of experiment: Antibacterial activity against Klebsiella pneumoniae isolate FADDI-KP032 after 18 hrs by broth microdilution method. In kind it is functional. The following applies: isolate FADDI-KP032, 18 h.
In experiment [7] the test system is Acinetobacter baumannii. Put plainly: Antibacterial activity against Acinetobacter baumannii isolate FADDI-AB034 after 18 hrs by broth microdilution method. In kind it is functional. As to conditions: isolate FADDI-AB034, 18 h.
In experiment [8] the test system is Klebsiella pneumoniae. Put plainly: Antibacterial activity against Klebsiella pneumoniae isolate FADDI-KP065 after 18 hrs by broth microdilution method. The following applies: isolate FADDI-KP065, 18 h. In kind it is functional.
Experiment [9] relates to Escherichia coli. As to the kind of experiment: Antibacterial activity against Escherichia coli isolate FADDI-EC003 after 18 hrs by broth microdilution method. In kind it is functional. As to conditions: isolate FADDI-EC003, 18 h.
The subject of experiment [10] is Acinetobacter baumannii. Put plainly: Antibacterial activity against Acinetobacter baumannii isolate FADDI-AB030 after 18 hrs by broth microdilution method. In kind it is functional. As to conditions: isolate FADDI-AB030, 18 h.
The test system of experiment [11] is Pseudomonas aeruginosa. As to the kind of experiment: Antibacterial activity against Pseudomonas aeruginosa isolate FADDI-PA001 after 18 hrs by broth microdilution method. In kind it is functional. The following applies: isolate FADDI-PA001, 18 h.
The subject of experiment [12] is Klebsiella pneumoniae. As to the kind of experiment: Antibacterial activity against Klebsiella pneumoniae BM1 after 18 hrs by broth microdilution method. In kind it is functional. As to conditions: BM1, 18 h.
The subject of experiment [13] is Pseudomonas aeruginosa. Put plainly: Antibacterial activity against Pseudomonas aeruginosa isolate FADDI-PA025 after 18 hrs by broth microdilution method. In kind it is functional. The following applies: isolate FADDI-PA025, 18 h.
In experiment [14] the test system is Klebsiella pneumoniae. Put plainly: Antibacterial activity against Klebsiella pneumoniae isolate FADDI-KP022 after 18 hrs by broth microdilution method. In kind it is functional. As to conditions: isolate FADDI-KP022, 18 h.
Experiment [15] relates to Klebsiella pneumoniae. Put plainly: Antibacterial activity against Klebsiella pneumoniae ATCC 13883 after 18 hrs by broth microdilution method. In kind it is functional. The following applies: ATCC 13883, 18 h.
In experiment [16] the test system is Pseudomonas aeruginosa. Put plainly: Antibacterial activity against Pseudomonas aeruginosa isolate FADDI-PA022 after 18 hrs by broth microdilution method. In kind it is functional. The following applies: isolate FADDI-PA022, 18 h.
Experiment [17] deals with Escherichia coli. Put plainly: Antibacterial activity against Escherichia coli isolate FADDI-EC001 after 18 hrs by broth microdilution method. The following applies: isolate FADDI-EC001, 18 h. In kind it is functional.
Experiment [18] relates to Pseudomonas aeruginosa. As to the kind of experiment: Antibacterial activity against Pseudomonas aeruginosa isolate FADDI-PA038 after 18 hrs by broth microdilution method. In kind it is functional. As to conditions: isolate FADDI-PA038, 18 h.
In experiment [19] the test system is Klebsiella pneumoniae. As to the kind of experiment: Antibacterial activity against Klebsiella pneumoniae ATCC 700721 after 18 hrs by broth microdilution method. In kind it is functional. The following applies: ATCC 700721, 18 h.
In experiment [20] the test system is Acinetobacter baumannii. Put plainly: Antibacterial activity against Acinetobacter baumannii ATCC 17978 after 18 hrs by broth microdilution method. As to conditions: ATCC 17978, 18 h. In kind it is functional.
Experiment [21] has as its system Escherichia coli. As to the kind of experiment: Antibacterial activity against Escherichia coli isolate FADDI-EC006 after 18 hrs by broth microdilution method. In kind it is functional. The following applies: isolate FADDI-EC006, 18 h.

Broadly, the MIC is the least concentration at which growth counts as inhibited. Read a low MIC as greater potency.

In brackets after ≈: the same amount, converted by molar mass. Activity calls are given as the source filed them. The rule behind the calls is not given here. Where a SMILES comes first, the peptide text is derived from it. Bridges are numbered along the chain shown (N, C = ends). [ ]: non-standard residue; d: D form. The star is where a group is joined. Heptanoyl(6-Me) = CC(C)CCCCC(=O)*; X1 = CC[C@H](C)CCCCC(=O)*; Dab = NCC[C@H](N)C(=O)O

Take `CC[C@H](C)CCCCC(=O)N[C@@H](CCN)C(=O)N[C@H](C(=O)N[C@@H](CCN)C(=O)N[C@H]1CCNC(=O)[C@H]([C@@H](C)O)NC(=O)[C@H](CCN)NC(=O)[C@H](CCN)NC(=O)[C@H](CC(C)C)NC(=O)[C@@H](Cc2ccccc2)NC(=O)[C@H](CCN)NC1=O)[C@@H](C)O` (X1-[Dab]T[Dab][Dab][Dab][dF]L[Dab][Dab]T; lactam 4-C): the MIC in the experiment on Acinetobacter baumannii [1], in the experiment with Pseudomonas aeruginosa [4] and in the experiment on Klebsiella pneumoniae [6] was 0.5 µg/mL (≈ 0.415 µM) each time. Also, the “log(activity)” value in the experiment on Pseudomonas aeruginosa [2] was -2.55. Besides, the outcome in the experiment on Klebsiella pneumoniae [3] and in the experiment on Acinetobacter baumannii [5] was Active.

For the molecule `CC[C@H](C)CCCCC(=O)N[C@@H](CCN)C(=O)N[C@H](C(=O)N[C@H](CO)C(=O)N[C@H]1CCNC(=O)[C@H]([C@@H](C)O)NC(=O)[C@H](CCN)NC(=O)[C@H](CCN)NC(=O)[C@H]([C@@H](C)O)NC(=O)[C@@H](CC(C)C)NC(=O)[C@H](CCN)NC1=O)[C@@H](C)O` (X1-[Dab]T[dS][Dab][Dab][dL]T[Dab][Dab]T; lactam 4-C), the MIC with Acinetobacter baumannii [7], in the experiment with Klebsiella pneumoniae [8], with Escherichia coli [9], against Acinetobacter baumannii [1], against Acinetobacter baumannii [10] and with Pseudomonas aeruginosa [11] was 8 to 32 µg/mL (≈ 6.99 to 28 µM) each time. In addition, the MIC against Klebsiella pneumoniae [12], against Pseudomonas aeruginosa [13], with Pseudomonas aeruginosa [4], with Klebsiella pneumoniae [14], against Klebsiella pneumoniae [15] and in the experiment on Pseudomonas aeruginosa [16] was 8 to 32 µg/mL (≈ 6.99 to 28 µM) each time. For the same molecule, the MIC in the experiment on Escherichia coli [17], in the experiment with Pseudomonas aeruginosa [18], with Klebsiella pneumoniae [6], in the experiment with Klebsiella pneumoniae [19], in the experiment with Acinetobacter baumannii [20] and in the experiment with Escherichia coli [21] was 8 to 32 µg/mL (≈ 6.99 to 28 µM) each time. Besides, in the experiment on Pseudomonas aeruginosa [2], the outcome was inactive. In addition, the result in the experiment on Klebsiella pneumoniae [3] and in the experiment with Acinetobacter baumannii [5] was Active.

As to `CC(C)CCCCC(=O)N[C@@H](CCN)C(=O)N[C@H](C(=O)N[C@H](CO)C(=O)N[C@H]1CCNC(=O)[C@H]([C@@H](C)O)NC(=O)[C@H](CCN)NC(=O)[C@H](CCN)NC(=O)[C@H]([C@@H](C)O)NC(=O)[C@@H](CC(C)C)NC(=O)[C@H](CCN)NC1=O)[C@@H](C)O` ({Heptanoyl(6-Me)}-[Dab]T[dS][Dab][Dab][dL]T[Dab][Dab]T; lactam 4-C), the MIC in the experiment on Acinetobacter baumannii [7], against Klebsiella pneumoniae [8], in the experiment on Escherichia coli [9], in the experiment on Acinetobacter baumannii [1], against Acinetobacter baumannii [10] and with Pseudomonas aeruginosa [11] was 8 to 32 µg/mL (≈ 7.08 to 28.3 µM) each time. Besides, the MIC against Klebsiella pneumoniae [12], against Pseudomonas aeruginosa [13], in the experiment on Pseudomonas aeruginosa [4], in the experiment with Klebsiella pneumoniae [14], against Klebsiella pneumoniae [15] and against Pseudomonas aeruginosa [16] was 8 to 32 µg/mL (≈ 7.08 to 28.3 µM) in each case. In addition, the MIC against Escherichia coli [17], against Pseudomonas aeruginosa [18], against Klebsiella pneumoniae [6], against Klebsiella pneumoniae [19], against Acinetobacter baumannii [20] and in the experiment on Escherichia coli [21] was 8 to 32 µg/mL (≈ 7.08 to 28.3 µM) throughout. Also, the outcome in the experiment on Pseudomonas aeruginosa [2] was inactive. The result in the experiment with Klebsiella pneumoniae [3] and in the experiment with Acinetobacter baumannii [5] was Active.

For `CC(C)CCCCC(=O)N[C@@H](CCN)C(=O)N[C@H](C(=O)N[C@@H](CCN)C(=O)N[C@H]1CCNC(=O)[C@H]([C@@H](C)O)NC(=O)[C@H](CCN)NC(=O)[C@H](CCN)NC(=O)[C@H](CC(C)C)NC(=O)[C@@H](Cc2ccccc2)NC(=O)[C@H](CCN)NC1=O)[C@@H](C)O` [POLYMYXIN B2] ({Heptanoyl(6-Me)}-[Dab]T[Dab][Dab][Dab][dF]L[Dab][Dab]T; lactam 4-C), the MIC against Acinetobacter baumannii [1], against Pseudomonas aeruginosa [4] and with Klebsiella pneumoniae [6] was 0.5 µg/mL (≈ 0.42 µM) throughout. Also, the “log(activity)” value with Pseudomonas aeruginosa [2] is on record as -2.55. Besides, the result in the experiment on Klebsiella pneumoniae [3] and with Acinetobacter baumannii [5] was Active.
